We go through 1 compound from EP3300715A1, “USE OF DIALKYLCARBONATES OF BRANCHED ALCOHOLS AS DISPERSION AGET” (BASF SE, priority 2016, dated 2018).

Each structure is given as a SMILES string.

The series in a line: Pigment dispersion test: medium added dropwise to 10 g pigment until a paste forms; maximum % pigment in the medium. To be noted: medium added dropwise to 10 g pigment (Eisenoxid, Titanoxid) until paste, no excess medium; compared with other media; shown in figure. The class given is physicochemical. From the text:
Es hat sich überraschend gezeigt, dass die erfindungsgemäß verwendeten Dialkylcarbonate gegenüber anderen Medien hervorragende Dispersionen mit Feststoffen bilden.
Das Experiment wurde wie folgt durchgeführt. Das Medium wurde tropfenweise zu 10 g Pigment (grau = Eisenoxid, dunkelgrau = Titanoxid), bis sich eine Paste gebildet hatte (kein Medium im Überschuss). Die folgende Rechnung entspricht der maximalen Menge Pigment in prozent, die in das jeweilige Medium gegeben werden kann: % Pigment = m(Pigment)/m(Pigment) + m(Medium) × 100 [formula]

As for `CCCCCC(CCC)COC(=O)OCC(CCC)CCCCC` (stereo not shown) [Di-(2-Propyl-1-heptyl)carbonat], the “Pigmentkonzentrationen (% Pigment, maximale Menge Pigment im Medium)” value is “höchsten Pigmentkonzentrationen”.
